“And” between values parts separate entries of the source, which are not always exact repeats. Equal entries are not always repeated. Records with an inconclusive call do not appear.
Tested on: nude mice, HT29 intrarenal xenograft, tumor weight T/C
Test: NCI In Vivo Anticancer Drug Screen. Data for tumor model HT29;CX-1 Human Adenocarcinoma (MER+) (intrarenal inoculation) in NU/NU Swiss (nude) mice
Conditions: endpoint: mean tumor weight change, higher = larger tumour
How it was run: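 Readout: treated/vehicle-control ratio of the measured endpoint (tumor size or survival) in transplanted-tumor mice.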

[1] = dose: 50.0 mg/kg/injection, schedule: Q04DX004 (sc), vehicle: Klucel (hydroxypropylcellulose) (HPC)
[2] = dose: 100.0 mg/kg/injection, schedule: Q04DX004 (sc), vehicle: Klucel (hydroxypropylcellulose) (HPC)
[3] = dose: 200.0 mg/kg/injection, schedule: Q04DX004 (sc), vehicle: Klucel (hydroxypropylcellulose) (HPC)
[4] = dose: 150.0 mg/kg/injection, schedule: Q04DX004 (sc), vehicle: saline with Tween-80
[5] = dose: 100.0 mg/kg/injection, schedule: Q01DX010 (sc), vehicle: saline
[6] = dose: 225.0 mg/kg/injection, schedule: Q04DX004 (sc), vehicle: Klucel (hydroxypropylcellulose) (HPC)
[7] = dose: 450.0 mg/kg/injection, schedule: Q04DX004 (sc), vehicle: Klucel (hydroxypropylcellulose) (HPC)
[8] = dose: 900.0 mg/kg/injection, schedule: Q04DX004 (sc), vehicle: Klucel (hydroxypropylcellulose) (HPC)
[9] = dose: 1800.0 mg/kg/injection, schedule: Q04DX004 (sc), vehicle: Klucel (hydroxypropylcellulose) (HPC)
[10] = dose: 100.0 mg/kg/injection, schedule: Q04DX004 (sc), vehicle: saline with Tween-80
[11] = dose: 400.0 mg/kg/injection, schedule: Q04DX004 (sc), vehicle: saline with Tween-80
[12] = dose: 800.0 mg/kg/injection, schedule: Q04DX004 (sc), vehicle: saline with Tween-80
[13] = dose: 300.0 mg/kg/injection, schedule: Q04DX004 (sc), vehicle: suspension in saline
[14] = dose: 600.0 mg/kg/injection, schedule: Q04DX004 (sc), vehicle: suspension in saline
[15] = dose: 1200.0 mg/kg/injection, schedule: Q04DX004 (sc), vehicle: suspension in saline
[16] = dose: 150.0 mg/kg/injection, schedule: Q04DX004 (sc), vehicle: Klucel (hydroxypropylcellulose) (HPC)
[17] = dose: 300.0 mg/kg/injection, schedule: Q04DX004 (sc), vehicle: Klucel (hydroxypropylcellulose) (HPC)

CSc1cc(C)[o+]c(C)c1
T/C [1]: 107 % of control
T/C [2]: 57 % of control
T/C [3]: 41 % of control

C[C@@H](CN1CC(=O)NC(=O)C1)N1CC(=O)NC(=O)C1
T/C (dose: 100.0 mg/kg/injection, schedule: Q01DX010 (sc), vehicle: saline with Tween-80): 232 % of control
T/C (dose: 200.0 mg/kg/injection, schedule: Q01DX010 (sc), vehicle: saline with Tween-80): 46 % of control

COc1ccc(C(=O)C(CN(C)C)CN(C)C)cc1
T/C (dose: 12.5 mg/kg/injection, schedule: Q04DX004 (sc), vehicle: saline): 100 % of control
T/C (dose: 25.0 mg/kg/injection, schedule: Q04DX004 (sc), vehicle: saline): 38 % of control

CCOC1=Cc2c(oc3c(C(C)(C)C)cc(OCC)cc23)OC(C(C)(C)C)=C1
T/C (dose: 37.5 mg/kg/injection, schedule: Q04DX004 (sc), vehicle: saline with Tween-80): 79 % of control
T/C (dose: 75.0 mg/kg/injection, schedule: Q04DX004 (sc), vehicle: saline with Tween-80): 87 % of control
T/C [4]: 256 % of control

Cc1cc(SCC(=O)c2ccc(Br)cc2)cc(C)[o+]1
T/C [5]: 41 % of control
T/C (dose: 200.0 mg/kg/injection, schedule: Q01DX010 (sc), vehicle: saline): 76 % of control

CN(C)CCN1C(=O)c2cccc3cc([N+](=O)[O-])cc(c23)C1=O
T/C (dose: 18.0 mg/kg/injection, schedule: Q04DX004 (sc), vehicle: saline with Tween-80): 95 % of control

CC1(C)OCC(CO)(Nc2nc(N3CC3)nc(N3CC3)n2)CO1
T/C (dose: 2.0 mg/kg/injection, schedule: Q04DX004 (sc), vehicle: saline): 76 % of control

CCCCCC(=O)O[C@]1(C(C)=O)CC[C@H]2[C@@H]3CCC4=CC(=O)CC[C@]4(C)[C@H]3CC[C@@]21C
T/C [6]: 73 % of control
T/C [7]: 46 % of control
T/C [8]: 58 % of control
T/C [9]: 36 % of control

CN(C)CCCNc1c2ccccc2nc2cccc([N+](=O)[O-])c12
T/C (dose: 0.37 mg/kg/injection, schedule: Q04DX004 (sc), vehicle: saline): 226 % of control

CCCCC1CCCCCCc2[nH]c(/C=C3\N=C(c4ccc[nH]4)C=C3OC)cc21 (stereo not drawn)
T/C (dose: 16.0 mg/kg/injection, schedule: Q04DX004 (sc), vehicle: saline with Tween-80): 200 % of control

CC(Cc1ccc(O)cc1)NCC(O)c1ccc(O)c(O)c1 (stereo not drawn)
T/C [10]: 106 % of control
T/C (dose: 200.0 mg/kg/injection, schedule: Q04DX004 (sc), vehicle: saline with Tween-80): 91 % of control
T/C [11]: 89 % of control
T/C [12]: 80 % of control

CCOC(=O)[C@]1(Br)CC[C@@]1(Br)C(=O)OCC
T/C [11]: 105 % of control
T/C [12]: 93 % of control
T/C (dose: 1600.0 mg/kg/injection, schedule: Q04DX004 (sc), vehicle: saline with Tween-80): 43 % of control

COc1cc(OC)c(OC)cc1/C=C\c1ccnc2ccccc12
T/C [6]: 79 % of control
T/C [7]: 110 % of control
T/C [8]: 83 % of control
T/C [9]: 67 % of control

c1ccc2sc(SSN3CC4CCC(CC4)C3)nc2c1
T/C (dose: 50.0 mg/kg/injection, schedule: Q01DX010 (sc), vehicle: saline with Tween-80): 120 % of control
T/C (dose: 400.0 mg/kg/injection, schedule: Q01DX010 (sc), vehicle: saline with Tween-80): 96 % of control

NC(=S)c1ncn(C2OC(CO)C(O)C2O)c1N (stereo not drawn)
T/C (dose: 150.0 mg/kg/injection, schedule: Q04DX004 (sc), vehicle: suspension in saline): 95 % of control
T/C [13]: 120 % of control
T/C [14]: 102 % of control
T/C [15]: 66 % of control

Oc1ccccc1C=NCCC[N-]CCCN=Cc1ccccc1O.[Co]
T/C (dose: 25.0 mg/kg/injection, schedule: Q01DX010 (sc), vehicle: suspension in saline): 109 % of control
T/C (dose: 100.0 mg/kg/injection, schedule: Q01DX010 (sc), vehicle: suspension in saline): 73 % of control and 76 % of control

S=P(N1CC1)(N1CC1)N1CC1
T/C (dose: 1.0 mg/kg/injection, schedule: Q01DX010 (sc), vehicle: saline): 34 % of control
T/C (dose: 2.0 mg/kg/injection, schedule: Q01DX010 (sc), vehicle: saline): 80 % of control

CCCCc1ccc(-n2c(C)c(COC(=O)NC)c(COC(=O)NC)c2C)cc1
T/C (dose: 50.0 mg/kg/injection, schedule: Q01DX010 (sc), vehicle: Klucel (hydroxypropylcellulose) (HPC)): 218 % of control
T/C [1]: 53 % of control
T/C (dose: 100.0 mg/kg/injection, schedule: Q01DX010 (sc), vehicle: Klucel (hydroxypropylcellulose) (HPC)): 89 % of control
T/C [2]: 53 % of control
T/C [3]: 73 % of control
T/C (dose: 400.0 mg/kg/injection, schedule: Q04DX004 (sc), vehicle: Klucel (hydroxypropylcellulose) (HPC)): 49 % of control

CCN(CC)c1ccc2cc(-c3nc4ccccc4n3C)c(=O)oc2c1
T/C (dose: 75.0 mg/kg/injection, schedule: Q04DX004 (sc), vehicle: Klucel (hydroxypropylcellulose) (HPC)): 82 % of control
T/C [16]: 67 % of control
T/C [17]: 88 % of control

NCCCC(N)(C(=O)O)C(F)F (stereo not drawn)
T/C (dose: 300.0 mg/kg/injection, schedule: Q04DX004 (sc), vehicle: distilled water + alcohol): 240 % of control
T/C (dose: 600.0 mg/kg/injection, schedule: Q04DX004 (sc), vehicle: distilled water + alcohol): 169 % of control
T/C (dose: 1200.0 mg/kg/injection, schedule: Q04DX004 (sc), vehicle: distilled water + alcohol): 75 % of control

OC1(CSc2ccccc2)CCCCC1
T/C [10]: 113 % of control

C=C(C)[C@]12CC(C)C34OC(/C=C\C=C\CCCCCCCCC)(O[C@@H]1[C@@H]3[C@@H]1O[C@]1(CO)[C@@H](O)[C@]1(O)C(=O)C(C)=C[C@@H]41)O2 (stereo partly drawn)
T/C (dose: 0.38 mg/kg/injection, schedule: Q04DX004 (sc), vehicle: distilled water + alcohol): 73 % of control
T/C (dose: 0.75 mg/kg/injection, schedule: Q04DX004 (sc), vehicle: distilled water + alcohol): 40 % of control
T/C (dose: 1.5 mg/kg/injection, schedule: Q04DX004 (sc), vehicle: distilled water + alcohol): 63 % of control
T/C (dose: 3.0 mg/kg/injection, schedule: Q04DX004 (sc), vehicle: distilled water + alcohol): 37 % of control

O=S(=O)(c1ccccc1)N1CN2CCN(C2)C1
T/C (dose: 225.0 mg/kg/injection, schedule: Q04DX004 (sc), vehicle: saline with Tween-80): 58 % of control
T/C (dose: 450.0 mg/kg/injection, schedule: Q04DX004 (sc), vehicle: saline with Tween-80): 75 % of control
T/C (dose: 900.0 mg/kg/injection, schedule: Q04DX004 (sc), vehicle: saline with Tween-80): 90 % of control

NC1=NCN(C2OC(CO)C(O)C2O)C(=O)N1 (stereo not drawn)
T/C (dose: 25.0 mg/kg/injection, schedule: Q01DX010 (sc), vehicle: saline): 70 % of control
T/C (dose: 50.0 mg/kg/injection, schedule: Q01DX010 (sc), vehicle: saline): 31 % of control
T/C [5]: 38 % of control

CC1=CC(=Nc2ccc(N(CCCl)CCCl)cc2)C=C(C)C1=O
T/C [16]: 71 % of control
T/C [17]: 76 % of control
T/C (dose: 600.0 mg/kg/injection, schedule: Q04DX004 (sc), vehicle: Klucel (hydroxypropylcellulose) (HPC)): 53 % of control

N[C@@H](Cc1ccc(N(CCCl)CCCl)cc1)C(=O)O
T/C (dose: 4.0 mg/kg/injection, schedule: Q04DX004 (ip), vehicle: saline): 47 % of control
T/C (dose: 6.0 mg/kg/injection, schedule: Q04DX004 (ip), vehicle: saline): 9 % of control
T/C (dose: 9.0 mg/kg/injection, schedule: Q04DX004 (ip), vehicle: saline): -5 % of control

CC1=C(C)C(=O)O[C@@H]([C@](C)(O)[C@]2(O)CC[C@@]3(O)[C@@H]4C[C@H]5O[C@]56[C@@H](O)C=CC(=O)[C@]6(C)[C@H]4CC[C@]23C)C1
T/C (dose: 4.0 mg/kg/injection, schedule: Q01DX010 (sc), vehicle: saline): 169 % of control
T/C (dose: 64.0 mg/kg/injection, schedule: Q01DX010 (sc), vehicle: saline): 46 % of control

CC(=O)N(C)O
T/C [4]: 88 % of control
T/C (dose: 300.0 mg/kg/injection, schedule: Q04DX004 (sc), vehicle: saline with Tween-80): 71 % of control
T/C (dose: 600.0 mg/kg/injection, schedule: Q04DX004 (sc), vehicle: saline with Tween-80): 45 % of control

CN(C)N=Nc1cn[nH]c1C(N)=O
T/C [13]: 85 % of control
T/C [14]: 67 % of control
T/C [15]: 74 % of control
